Assay [1] has as its system APOE*3Leiden.CETP transgenic mice on high fat diet. Briefly: Diet induced NASH in APOE*3Leiden.CETP mice, hepatic inflammation score. The format is in vivo. As to conditions: for Inflammation (# of inflammatory cell foci): in high fat diet. The protocol: (§1) This experiment was performed to evaluate the effects of OCA and fenofibrate, alone or in combination, on the development of diet induced NASH and liver fibrosis in APOE*3Leiden.CETP transgenic mice. Hepatic gene expression profiling and subsequent pathway analysis were performed to determine whether the combination regulates novel genes not regulated by either monotherapy treatment, and/or more strongly regulates genes also impacted by the monotherapy.
Male APOE*3Leiden.CETP transgenic mice (9-21 weeks old) were obtained and housed 2-5 mice per cage. The mice were fed a high fat diet containing 24% lard and 1% (w/w) cholesterol. The run in period was 15 weeks on the high fat diet. At week 16, mice were matched based on age, body weight, plasma cholesterol and triglycerides after 4 h fasting.
• Mice (n=15) were fed a high fat diet during the run in weeks 0 to 14. Group 2: HFC control group • Mice (n=15) were fed a high fat diet from weeks 0 to 24. Group 3: HFC+OCA • Mice (n=15) were fed a high fat diet supplemented with OCA at a dose of 10 mg/kg once daily from week 16 to 24. Group 4: HFC+low dose fenofibrate • Mice (n=15) were fed a high fat diet supplemented with fenofibrate at a dose of 10 mg/kg once daily from week 16 to 24. Group 5: HFC+high dose fenofibrate • Mice (n=15) were fed a high fat diet supplemented with fenofibrate at a dose of 40 mg/kg once daily from week 16 to 24. Group 6: HFC+OCA+low dose fenofibrate • Mice (n=15) were fed a high fat diet supplemented with OCA at a dose of 10 mg/kg once daily and fenofibrate at a dose of 10 mg/kg once daily from week 16 to 24. Group 7: HFC+OCA+high dose fenofibrate • Mice (n=15) were fed a high fat diet supplemented with OCA at a dose of 10 mg/kg once daily and fenofibrate at a dose of 40 mg/kg once daily from week 16 to 24. Group 8: Chow control group • Mice (n=8) were feed chow from week 0 to 24. Study Design
(§2) Mice were fed a high fat chow (HFC) diet for […]. After 15 weeks on the HFC diet, HFC mice were matched into 7 groups based on age, body weight, plasma cholesterol and triglycerides after 4 h fasting. Mice were treated with of OCA and fenofibrate, alone or in combination beginning at week 15 and sacrificed at week 25 in an unfasted state. One week before sacrifice, mice were labeled with D20, by i.p. injection of a bolus of D20 and subsequent addition of 4% D20 to the drinking water. Plasma (EDTA) was obtained by heart puncture and stored at −70° C. The liver was weighed and 4 pieces of liver were isolated: 1 piece (medial lobe) was fixed in 10% formalin (for NASH and fibrosis histology) and 3 pieces (sinister lobe) were snap-frozen in liquid N2 and stored individually at −70° C.
Inflammation is a key feature of NASH. Inflammation was categorized according to the procedure by Liang et al., PlosOne 2014 Dec. 9(12) and scored by quantitatively analyzing the number of inflammatory cells aggregates. In particular, the level of inflammation was evaluated by counting the number of inflammatory foci per field using a 100× magnification (view size of 3.1 mm2; average of five different fields).

In assay [2] the test system is leukocyte extravasation signaling. As to the kind of experiment: Hepatic gene expression profiling (RNA sequencing, pathway analysis) in APOE*3Leiden.CETP mice. Type of assay: in vivo. The protocol: as §1, §2
Nucleic acid extraction was performed as described previously in detail (Verschuren et al., 2014). Briefly, total RNA was extracted from individual liver samples using glass beads and RNAzol (Campro Scientific, Veenendaal, The Netherlands). RNA concentration and quality was determined using the Fragment Analyzer (Advanced Analytical Technologies, USA) and the RNA 6000 Nano Lab-on-a-Chip kit and a Bioanalyzer 2100 (Agilent Technologies, Amstelveen, The Netherlands). All samples met the quality requirements and were used in the RNA sequencing procedure.
The NEBNext Ultra Directional RNA library Prep Kit for Illumina was used to process the samples. The sample preparation was performed according to the protocol “NEBNext Ultra Directional RNA Library Prep Kit for Illumina” (NEB #E7420S/L). Briefly, mRNA was isolated from total RNA using oligo-dT magnetic beads. After fragmentation of the mRNA, a cDNA synthesis was performed. This was used for ligation of sequencing adapters and PCR amplification of the resulting product. The quality and yield after sample preparation was measured with the Fragment Analyzer (Advanced Analytical Technologies, USA). The size of the resulting products was consistent with the expected size distribution (a broad peak between 300-500 bp).
Clustering and DNA sequencing using the Illumina […] was performed according manufacturer's protocols. Data was generated using single-end read sequencing protocol obtaining approx. 15 million reads per sample and 75 bp per read. Image analysis, base calling, and quality check was performed with the Illumina data analysis pipeline RTA v2.4.11 to generate the raw data (*.fastq-files).
The reads were mapped to the reference sequence Mus musculus GRCm38.p3 using a short read aligner based on Burrows-Wheeler Transform. The default mismatch rate of 2% (3 mismatches in a read of 150 bases) was used. Based on the mapped read locations in the alignment files (*.bam-files) the frequency of how often a read was mapped on a transcript was determined. The counts were saved to count-files, which served as input for downstream mRNA-seq differential expression analysis. The read counts were loaded into the DESeq package, a statistical package within the R platform. […]

Assay [3] concerns fibrosis induced by common bile duct ligation in mice. As to the kind of experiment: Bile duct ligation (BDL) model, Sirius-red staining of liver sections. The format is in vivo, C57BL/6 mice. As to conditions: mean ± SD, OCA 5 mg/kg and/or atorvastatin 10 mg/kg orally once daily day 0 to day 6. The protocol:
This experiment was performed to evaluate the effects of OCA and atorvastatin alone, and in combination, on fibrosis induced by common bile duct ligation in mice.
Male C57BL/6 mice (6 weeks of age) were obtained from Japan SLC. The animals were maintained in a specific pathogen free facility under controlled conditions of temperature (23±2° C.), humidity (45±10%), lighting (12-hour artificial light and dark cycles; light from 8:00 to 20:00), and air exchange (air exchange rate: more than 40 times/hour). A high pressure (20±4 Pa) was maintained in the experimental room to prevent contamination of the facility. The animals were housed in KN-600 (Natsume Seisakusho, Japan) with a maximum of 6 mice per cage. […]
Viability, clinical signs and behavior were monitored daily. Body weight was recorded daily during the treatment period. Food consumption was measured twice weekly per cage during the treatment period. […]
To visualize collagen deposition, Bouin's-fixed left lateral liver sections were stained using picro-Sirius red solution (Waldeck, Germany). For quantitative analysis of the fibrosis area, bright field images of Sirius red-stained sections were captured around the central vein using a digital camera (DFC295; Leica, Germany) at 100-fold magnification, and the positive areas in 5 fields/section were measured using ImageJ software (National Institute of Health, USA). […]

The mark [4] stands for this setting: high dose fenofibrate 40 mg/kg, alone or with OCA 10 mg/kg.

Consider `CC(C)OC(=O)C(C)(C)Oc1ccc(C(=O)c2ccc(Cl)cc2)cc1` [fenofibrate], for which the “Inflammation (# of inflammatory cell foci)” value in assay [1] (OCA 10 mg/kg and/or low dose fenofibrate 10 mg/kg) is reported as 22.0 ± 15.6. Further, in assay [1] (setting [4]), the reduction in inflammation is −74% and the “Inflammation (# of inflammatory cell foci)” value is 7.1 ± 5.9. The “number of uniquely regulated genes” value in assay [2] (Venn diagram, OCA 10 mg/kg, fenofibrate 10 mg/kg, combination) stood at 92. Besides, in assay [2] (liver mRNA, OCA 10 mg/kg and/or low dose fenofibrate vs HFC), the “enrichment analysis of canonical (inflammatory) pathways” value is “no effect”.

Take `CC(C)c1c(C(=O)Nc2ccccc2)c(-c2ccccc2)c(-c2ccc(F)cc2)n1CC[C@@H](O)C[C@@H](O)CC(=O)O` [ATO, atorvastatin, reference compound]: the “Sirius red-positive area (%)” value in assay [3] was determined as 2.31 ± 0.63%.

The values are drawn from patent US12337003B2, “Pharmaceutical compositions for combination therapy” (Intercept Pharmaceuticals, Inc., priority 2015, dated 2025).
